Source: patent publication US20240285555A1, “COMPOSITIONS FOR THE TREATMENT OF COPPER DEFICIENCY AND METHODS OF USE” (priority 2018, published 2024)

Assays:
[1] = test system: zebrafish embryos; assay: Survival of zebrafish embryos treated with ES, copper and combinations; assay type: in vivo
Text: NT, No treatment; ES, Elesclomol.

[2] = test system: yeast ccc2Δ; assay: Respiratory growth rescue of ccc2Δ yeast; assay type: cell-based, Saccharomyces cerevisiae; details: non-fermentable media, 37° C.
Procedure: (§1) Yeast Strains and Culture Conditions. The authenticity of yeast strains was confirmed by PCR as well as by replica plating on dropout plates. Yeast cells were cultured in standard YP growth media including YPD (1% yeast extract, 2% peptone and 2% glucose), YPGal (2% galactose), YPGE (3% glycerol+1% ethanol), or synthetic media (SC glucose). For qualitative growth measurement, 10-fold serial dilutions of overnight cultures were spotted on YPD or YPGE plates and incubated at 30° C. and 37° C. for the indicated period. Growth in liquid media was measured spectrophotometrically at 600 nm.
(§2) ES Rescues Many Different Yeast Mutants with Impaired Copper Metabolism. To test the specificity of ES mediated rescue, a number of yeast mutants of genes required for maintaining cellular and mitochondrial copper homeostasis were shortlisted. Genes were prioritized based on their evolutionary conservation, presence of pathogenic mutations in humans, and/or the existence of a related mouse phenotype (Table 3, shown below). […] Most of the yeast mutants were rescued with ES supplementation, albeit to different degrees, reflecting their distinct roles in cellular and mitochondrial copper homeostasis. […]

[3] = test system: yeast atx1Δ; assay: Respiratory growth rescue of atx1Δ yeast; assay type: cell-based, Saccharomyces cerevisiae; details: non-fermentable media, 37° C.
Procedure: as §1, §2

[4] = test system: Ctr1^−/− H9c2 cardiomyocytes; assay: COX1 and SOD1 levels in Ctr1 knockout H9c2 cardiomyocytes (Western blot); assay type: cell-based, rat; details: 5 nM ES
Procedure: FIGS. 4A and 4B illustrates the effects of ES supplementation in increasing copper levels (A) and cytochrome c oxidase subunit, COX1, and superoxide dismutase, SOD1 levels (B) in Ctrl1^−/− H9c2 rat cardiomyocytes. ATP5A is a subunit of mitochondrial ATP synthase and was used as a loading control for the Western blotting experiment.
Mammalian Cell Culture. The human control MCH46 and SCO2 patient fibroblasts as well as the rat H9c2 control and Ctr1^−/− cardiomyocytes were cultured in high glucose Dulbecco's modified Eagle's medium (DMEM) supplemented with 10% fetal bovine serum (Sigma) and 1 mM sodium pyruvate (Life Technologies). The mouse embryonic fibroblasts were cultured in DMEM 10% FBS, 1 mM sodium pyruvate, 1× minimum essential medium non-essential amino acids (MEM NEAA; Life Technologies 11140), 50 μg/mL uridine, and 1× Pen Strep Glutamine (Life Technologies 10378). All cell lines were cultured under 5% CO2 at 37° C. and were treated with indicated concentrations of ES for 3-6 days before harvesting. Whole cell protein was extracted in lysis buffer (BP-115, Boston BioProducts) supplemented with protease inhibitor cocktail (Roche Diagnostics) and the protein concentrations were determined by BCA assay (Thermo Scientific).
Construction of a Ctr1 Knockout Rat H9c2 Cell Line. […]

[5] = test system: ctr1Δ cells; assay: Respiratory growth rescue of ctr1Δ yeast; assay type: cell-based, Saccharomyces cerevisiae; details: non-fermentable media, 37° C.
Procedure: as §1
ES Rescues Many Different Yeast Mutants with Impaired Copper Metabolism. To test the specificity of ES mediated rescue, a number of yeast mutants of genes required for maintaining cellular and mitochondrial copper homeostasis were shortlisted. Genes were prioritized based on their evolutionary conservation, presence of pathogenic mutations in humans, and/or the existence of a related mouse phenotype (Table 3, shown below). […] Most of the yeast mutants were rescued with ES supplementation, albeit to different degrees, reflecting their distinct roles in cellular and mitochondrial copper homeostasis.

[6] = test system: Ctr1^−/− zebrafish; assay: Cox1 levels in mitochondrial extracts of Ctr1 mutant zebrafish; assay type: in vivo; details: grown in the presence of ES until 10 dpf
Procedure: Zebrafish Experiments. […] Morpholino-based experiments were performed.
ES Supplementation Rescues Copper Deficiency Phenotypes in Zebrafish Models. To determine whether ES can rescue phenotypes associated with copper deficiency in an intact developing vertebrate animal model, zebrafish embryos with a null mutation in the gene encoding the plasma membrane copper importer Ctr1 were utilized. Zebrafish were chosen because of the ability to quickly monitor the pigmentation defect that arises due to the copper requirement of tyrosinase, an enzyme that catalyzes the critical step in melanin biosynthesis. Wild type zebrafish embryos have a characteristic melanin pigmentation pattern visible at 48 hpf. To determine if ES can rescue copper deficiency phenotypes in zebrafish, zebrafish embryos from heterozygous Ctr1 crosses in 10 nM ES were incubated and compared to untreated embryos. […] To determine whether ES can rescue the observed CcO assembly defect, clutches of embryos were grown from heterozygous Ctr1 crosses in the presence of ES until 10 dpf and levels of Cox1 in their mitochondrial extracts were measured.

## CN(NC(=O)CC(=O)NN(C)C(=S)c1ccccc1)C(=S)c1ccccc1 [ES, elesclomol]
[1]; co-supplementation of 100 nM ES with 100 nM of copper
  lethality: 100%
[1]; zebrafish embryos
  maximal tolerable dose: 100 nM
[2]
  rescue of respiratory growth: rescue
[3]
  rescue of respiratory growth: rescue
[4]
  levels of COX1 and SOD1: restores
[5]
  rescue of respiratory growth: higher concentration of ES is required to rescue
[6]
  Cox1 levels in mitochondrial extracts: almost completely rescued
